# Assay results reported in patent publication US4430339A, “Substituted oxiranecarboxylic acids, their preparation and their use as medicaments” (Byk Gulden Lomberg Chemische Fabrik Gesellschaft mit …, priority 1980, dated 1984).
# Where two headings read alike, the source gives them in different places.
# Legend:
# [1] = system: blood glucose concentration; test: Determination of glucose in the blood after a single oral administration (fasted, metabolically healthy rats); parameters: species or system Sprague-Dawley rats; settings: Rattus norvegicus, read-out: Change in the blood glucose concentration (in %) in vivo (maximum, relative to the control group)
# Method: Table I reflects investigations of the effect of representative compounds according to the invention on the blood glucose concentration of fasting, metaboically healthy rats. Column A in each case gives the maximum lowering of the blood glucose concentration of rats which have been fasted (in %, relative to the control group) which is observed in the course of 6 hours after single oral administration of 0.6 mmole of substance/kg of body weight. Column B provides data relating to acute toxicity (LD50; mice, peroral administration).
# Column A = maximum change in the blood glucose concentration (in %,
# relative to the control animals) in vivo in rats which have been fasted a
# 1. Determination of glucose in the blood after a single oral administration.
# Young male Sprague-Dawley rats (body weight: 150 to 200 g) are used. The animals (6 animals per dose) are kept in Makrolon cages with up to 4 animals per cage (ambient temperature: 23° C., relative atmospheric humidity: 55%, fixed day/night rhythm [12/12 hours], standard diet: Altromin®). The rats are deprived of the feed 18 hours before the first sample of blood is taken. Water is available ad libitum. Samples of blood are taken from the postorbital plexus by puncture immediately before and 2, 4 and 6 hours after administration of the substance.
# After deproteinization with perchloric acid, the glucose in the blood is determined by means of the enzymatic HK/G-6-PDH method of R. Richterich [Klinische Chemie, Theorie und Praxis, (Clinical Chemistry, Theory and Practice), 3rd edition, 1971, S. Karger Verlag, Zurich-Basle, page 275]. A control group (10 animals, treated with pure solvent) is also investigated in each case for comparison.
# [2] = in vivo; settings: mouse, po, mice p.o., observation time 7 days, read-out: Acute toxicity LD50 (converted)
# Method: Column B provides data relating to acute toxicity (LD50; mice, peroral administration).
# 2. Determination of the toxicity.
# Various doses of the substances (volume: 10 ml/kg) are administered orally by means of a stomach tube. The observation time is 7 days.
# [3] = fasted rats, single oral administration of 0.6 mmole/kg, maximum in the course of 6 hours
SMILES,"change in vivo at 600 µmol/kg [1, 3]",LD50 [2],"change in vivo at 600 µmol/kg ([1]; po, 6 h)"
"CCOC(=O)C1(CCCCC2CCCC2)CO1 (stereo not shown) [Serial No. 6, 2-(4-Cyclopentylbutyl)-oxirane-2-carboxylic acid ethyl ester]",-21%,1600 mg/kg,–
"CCOC(=O)C1(CCCC2CCCC2)CO1 (stereo not shown) [Serial No. 5, 2-(3-Cyclopentylpropyl)-oxirane-2-carboxylic acid ethyl ester]",-15%,2400 mg/kg,–
"CCCCNC(=N)NC(=N)N [Serial No. 1, Buformin, reference compound]",–,–,-8%
"CCOC(=O)C1(CCCCCC2CCCCC2)CO1 (stereo not shown) [Serial No. 4, 2-(5-Cyclohexylpentyl)-oxirane-2-carboxylic acid ethyl ester]",-48%,520 mg/kg,–
"[H]/N=C(/N)N/C(=N/[H])NCCc1ccccc1 [Serial No. 2, Phenformin, reference compound]",-6%,–,–
"CCOC(=O)C1(CCCCCC2CCCCCC2)CO1 (stereo not shown) [Serial No. 9, 2-(5-Cycloheptylpentyl)-oxirane-2-carboxylic acid ethyl ester]",-18%,330 mg/kg,–
"CCOC(=O)C1(CCCC2CCCCCC2)CO1 (stereo not shown) [Serial No. 8, 2-(3-Cycloheptylpropyl)-oxirane-2-carboxylic acid ethyl ester]",-22%,790 mg/kg,–
"CCOC(=O)C1(CCCC2CCCCC2)CO1 (stereo not shown) [Serial No. 3, 2-(3-Cyclohexylpropyl)-oxirane-2-carboxylic acid ethyl ester]",-24%,1400 mg/kg,–
"CCOC(=O)C1(CCOCCCC2CCCCC2)CO1 (stereo not shown) [Serial No. 7, 2-[2-(3-Cyclohexylpropyloxy)-ethyl]-oxirane-2-carboxylic acid ethyl ester]",-30%,570 mg/kg,–
